Measured values from patent US11253517B2, “Small molecule regulators of steroid receptor coactivators and methods of use thereof” (BAYLOR COLLEGE OF MEDICINE, priority 2016, dated 2022).
pIC50: −log10 of the molar value.

What was measured:
BT-474 cells = test: IC50 in BT-474 cells, 72 hours incubation; assay type: cell-based
Description: The compounds described herein were synthesized as described in Example 1. The IC50 values were measured in MDA-MB-468, BT-474, and MCF-7 cells by incubating a series of concentrations of the corresponding compounds for 72 hours.
In Tables 1 and 2, “−” represents IC50 or EC50 values greater than 10 μM; “+” represents IC50 or EC50 values from greater than 1 μM to 10 μM; “++” represents IC50 or EC50 values from 0.1 μM to 1 μM; and “+++” represents IC50 or EC50 values less than 0.1 μM.

MAPKAPK2 = biological target: T1, MAPKAPK2 (Homo sapiens, UniProt P49137); test: Kinase-Glo Luminescent Kinase Assay; assay type: biochemical
T1 construct: purchased Promega
Description: (§1) SI-12 was also tested for its ability to disrupt kinase activity. The effects of the compound were tested on a panel of 24 kinases using a Kinase-Glo Luminescent Kinase Assay system (Promega; Madison, Wis.). SI-12 was tested, at concentrations of 1000 nM, 50 nM, and 5 nM, for its ability to interfere with recombinant kinases in the assay system. The amount of ATP to ADP conversion in the presence of SI-12 was compared to a DMSO vehicle control. The values shown in Table 3 represent the percentage of kinase activity compared to a DMSO vehicle control.
(§2) In Table 3, “−” represents less than 20% inhibition; “+” represents from 20% to 40% inhibition; “++” represents from 40% to 60% inhibition; and “+++” represents greater than 60% inhibition.

PAK1/CDC42 = biological target: T2, PAK1/CDC42 (Homo sapiens, UniProt Q13153); test: Kinase-Glo Luminescent Kinase Assay; assay type: biochemical
T2 construct: purchased Promega
Description: as §1, §2

TAK1-TAB1 = biological target: T3, TAK1-TAB1 (Homo sapiens, UniProt O43318); test: Kinase-Glo Luminescent Kinase Assay; assay type: biochemical
T3 construct: purchased Promega
T3 sequence (O43318 with tags, fused parts or gaps limits assumed): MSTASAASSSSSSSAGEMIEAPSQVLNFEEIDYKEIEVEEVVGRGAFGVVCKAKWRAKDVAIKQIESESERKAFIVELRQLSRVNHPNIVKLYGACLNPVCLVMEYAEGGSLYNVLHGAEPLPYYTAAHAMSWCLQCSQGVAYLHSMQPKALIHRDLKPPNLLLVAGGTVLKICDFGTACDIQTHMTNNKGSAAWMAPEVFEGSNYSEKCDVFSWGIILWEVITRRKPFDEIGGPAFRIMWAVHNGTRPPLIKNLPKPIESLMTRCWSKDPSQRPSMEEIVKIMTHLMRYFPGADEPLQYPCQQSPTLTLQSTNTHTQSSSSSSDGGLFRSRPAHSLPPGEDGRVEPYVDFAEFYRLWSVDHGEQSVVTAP
Description: as §1, §2

Aurora A = biological target: T4, Aurora A (Homo sapiens, UniProt O14965); test: Kinase-Glo Luminescent Kinase Assay; assay type: biochemical
T4 construct: purchased Promega
T4 sequence (O14965 1-403): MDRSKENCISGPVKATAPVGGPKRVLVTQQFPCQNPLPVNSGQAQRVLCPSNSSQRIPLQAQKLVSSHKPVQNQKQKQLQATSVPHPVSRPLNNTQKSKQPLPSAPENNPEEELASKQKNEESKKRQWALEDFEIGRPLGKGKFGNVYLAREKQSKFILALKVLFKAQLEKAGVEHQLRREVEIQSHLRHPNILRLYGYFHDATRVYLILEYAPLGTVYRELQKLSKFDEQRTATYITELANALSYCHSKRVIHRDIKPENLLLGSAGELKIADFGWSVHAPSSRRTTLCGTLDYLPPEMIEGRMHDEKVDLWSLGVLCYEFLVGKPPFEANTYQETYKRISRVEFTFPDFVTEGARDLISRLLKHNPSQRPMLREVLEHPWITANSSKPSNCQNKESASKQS
Description: as §1, §2

IKKb = biological target: T5, IKKb (Homo sapiens, UniProt O14920); test: Kinase-Glo Luminescent Kinase Assay; assay type: biochemical
T5 construct: purchased Promega
T5 sequence (O14920 1-756): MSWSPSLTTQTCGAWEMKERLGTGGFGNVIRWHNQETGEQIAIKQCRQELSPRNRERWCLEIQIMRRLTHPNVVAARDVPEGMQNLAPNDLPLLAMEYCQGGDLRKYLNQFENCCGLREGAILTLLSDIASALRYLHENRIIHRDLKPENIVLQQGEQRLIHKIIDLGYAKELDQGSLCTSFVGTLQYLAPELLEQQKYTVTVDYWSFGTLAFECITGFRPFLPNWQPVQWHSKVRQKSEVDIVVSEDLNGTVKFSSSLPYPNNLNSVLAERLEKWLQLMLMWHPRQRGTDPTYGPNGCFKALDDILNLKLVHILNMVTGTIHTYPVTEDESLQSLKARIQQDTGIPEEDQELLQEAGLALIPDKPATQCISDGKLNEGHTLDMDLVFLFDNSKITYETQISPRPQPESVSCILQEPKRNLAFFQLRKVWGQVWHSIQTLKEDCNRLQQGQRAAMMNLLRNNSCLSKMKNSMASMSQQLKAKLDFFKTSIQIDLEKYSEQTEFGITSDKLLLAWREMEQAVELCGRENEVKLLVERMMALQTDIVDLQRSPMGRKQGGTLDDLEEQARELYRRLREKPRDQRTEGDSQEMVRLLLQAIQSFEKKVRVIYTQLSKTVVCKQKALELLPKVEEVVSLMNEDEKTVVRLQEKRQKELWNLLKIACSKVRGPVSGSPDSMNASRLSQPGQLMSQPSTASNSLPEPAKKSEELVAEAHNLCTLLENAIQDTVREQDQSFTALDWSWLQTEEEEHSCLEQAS
Description: as §1, §2

AKT1 = biological target: T6, AKT1 (Homo sapiens, UniProt P31749); test: Kinase-Glo Luminescent Kinase Assay; assay type: biochemical
T6 construct: purchased Promega
Description: as §1, §2

CDK2/CyclinE1 = biological target: T7, CDK2/CyclinE1 (Homo sapiens, UniProt P24941); test: Kinase-Glo Luminescent Kinase Assay; assay type: biochemical
T7 construct: purchased Promega
Description: as §1, §2

LCK = biological target: T8, LCK (Homo sapiens, UniProt P06239); test: Kinase-Glo Luminescent Kinase Assay; assay type: biochemical
T8 construct: purchased Promega
Description: as §1, §2

T6 sequence (P31749 whole entry): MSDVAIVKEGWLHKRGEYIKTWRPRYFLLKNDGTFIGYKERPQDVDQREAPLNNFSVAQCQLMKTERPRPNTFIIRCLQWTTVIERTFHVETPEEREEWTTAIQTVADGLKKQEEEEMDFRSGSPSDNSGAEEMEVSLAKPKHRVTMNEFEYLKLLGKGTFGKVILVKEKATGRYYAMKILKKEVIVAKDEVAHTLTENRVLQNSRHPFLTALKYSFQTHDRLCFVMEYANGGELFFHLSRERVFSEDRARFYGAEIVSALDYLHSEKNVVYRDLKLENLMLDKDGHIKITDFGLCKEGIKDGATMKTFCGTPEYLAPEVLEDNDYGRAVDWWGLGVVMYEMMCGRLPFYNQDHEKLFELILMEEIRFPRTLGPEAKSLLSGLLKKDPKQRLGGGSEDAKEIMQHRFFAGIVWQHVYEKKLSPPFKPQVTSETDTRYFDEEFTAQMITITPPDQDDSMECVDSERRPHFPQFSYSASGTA
T2 sequence (Q13153 whole entry): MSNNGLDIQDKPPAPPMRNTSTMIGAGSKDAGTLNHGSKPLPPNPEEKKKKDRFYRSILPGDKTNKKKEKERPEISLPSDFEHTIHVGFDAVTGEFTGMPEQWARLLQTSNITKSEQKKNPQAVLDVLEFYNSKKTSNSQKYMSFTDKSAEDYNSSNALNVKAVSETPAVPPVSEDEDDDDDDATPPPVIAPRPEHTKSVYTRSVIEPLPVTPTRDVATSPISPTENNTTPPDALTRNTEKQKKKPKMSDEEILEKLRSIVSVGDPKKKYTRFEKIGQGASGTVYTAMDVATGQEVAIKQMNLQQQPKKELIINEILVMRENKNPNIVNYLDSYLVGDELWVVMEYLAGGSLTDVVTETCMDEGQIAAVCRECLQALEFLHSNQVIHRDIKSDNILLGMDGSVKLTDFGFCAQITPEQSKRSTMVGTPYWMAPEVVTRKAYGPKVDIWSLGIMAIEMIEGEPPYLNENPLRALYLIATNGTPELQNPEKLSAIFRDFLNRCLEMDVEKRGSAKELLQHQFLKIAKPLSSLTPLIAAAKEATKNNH
T8 sequence (P06239 whole entry): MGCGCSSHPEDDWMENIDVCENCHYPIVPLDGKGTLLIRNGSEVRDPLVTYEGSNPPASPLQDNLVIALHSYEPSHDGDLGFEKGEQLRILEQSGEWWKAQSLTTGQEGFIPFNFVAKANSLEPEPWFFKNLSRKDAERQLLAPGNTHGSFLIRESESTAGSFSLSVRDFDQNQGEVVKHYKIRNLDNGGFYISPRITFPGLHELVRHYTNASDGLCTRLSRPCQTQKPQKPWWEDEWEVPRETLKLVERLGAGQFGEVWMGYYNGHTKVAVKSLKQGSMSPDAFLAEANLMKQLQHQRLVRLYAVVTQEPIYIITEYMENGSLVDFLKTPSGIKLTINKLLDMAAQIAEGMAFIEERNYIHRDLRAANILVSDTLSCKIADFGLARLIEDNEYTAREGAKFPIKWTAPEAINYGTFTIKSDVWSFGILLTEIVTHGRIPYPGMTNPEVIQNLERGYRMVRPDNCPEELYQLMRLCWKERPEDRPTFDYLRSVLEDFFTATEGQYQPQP
T1 sequence (P49137 whole entry): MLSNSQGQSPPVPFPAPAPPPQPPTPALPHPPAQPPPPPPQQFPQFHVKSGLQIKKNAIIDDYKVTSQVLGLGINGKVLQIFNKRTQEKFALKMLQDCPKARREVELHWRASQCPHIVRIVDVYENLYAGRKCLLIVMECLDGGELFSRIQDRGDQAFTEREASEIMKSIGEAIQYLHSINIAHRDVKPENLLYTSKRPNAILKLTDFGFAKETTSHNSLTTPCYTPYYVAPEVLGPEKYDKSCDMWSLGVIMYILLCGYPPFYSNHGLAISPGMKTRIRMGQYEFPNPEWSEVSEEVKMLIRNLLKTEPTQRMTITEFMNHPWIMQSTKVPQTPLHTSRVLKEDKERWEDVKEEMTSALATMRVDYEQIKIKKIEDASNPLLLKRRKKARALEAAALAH

CC(=NNc1nc2cc(F)c(F)cc2n1C)c1ccc(F)cn1 [SI-12]
pIC50 (BT-474 cells): > 7.00 | MAPKAPK2 kinase inhibition (MAPKAPK2; 5 nM): − (less than 20% inhibition) | MAPKAPK2 kinase inhibition (MAPKAPK2; 50 nM): − (less than 20% inhibition) | MAPKAPK2 kinase inhibition (MAPKAPK2; 1000 nM): − (less than 20% inhibition) | PAK1/CDC42 kinase inhibition (PAK1/CDC42; 5 nM): − (less than 20% inhibition) | PAK1/CDC42 kinase inhibition (PAK1/CDC42; 50 nM): − (less than 20% inhibition) | PAK1/CDC42 kinase inhibition (PAK1/CDC42; 1000 nM): − (less than 20% inhibition) | TAK1-TAB1 kinase inhibition (TAK1-TAB1; 5 nM): − (less than 20% inhibition) | TAK1-TAB1 kinase inhibition (TAK1-TAB1; 50 nM): − (less than 20% inhibition) | TAK1-TAB1 kinase inhibition (TAK1-TAB1; 1000 nM): − (less than 20% inhibition) | Aurora A kinase inhibition (Aurora A; 5 nM): − (less than 20% inhibition) | Aurora A kinase inhibition (Aurora A; 50 nM): − (less than 20% inhibition) | Aurora A kinase inhibition (Aurora A; 1000 nM): − (less than 20% inhibition) | IKKb kinase inhibition (IKKb; 5 nM): ++ (from 40% to 60% inhibition) | IKKb kinase inhibition (IKKb; 50 nM): +++ (greater than 60% inhibition) | IKKb kinase inhibition (IKKb; 1000 nM): +++ (greater than 60% inhibition) | AKT1 kinase inhibition (AKT1; 5 nM): − (less than 20% inhibition) | AKT1 kinase inhibition (AKT1; 50 nM): − (less than 20% inhibition) | AKT1 kinase inhibition (AKT1; 1000 nM): − (less than 20% inhibition) | CDK2/CyclinE1 kinase inhibition (CDK2/CyclinE1; 5 nM): − (less than 20% inhibition) | CDK2/CyclinE1 kinase inhibition (CDK2/CyclinE1; 50 nM): − (less than 20% inhibition) | CDK2/CyclinE1 kinase inhibition (CDK2/CyclinE1; 1000 nM): − (less than 20% inhibition) | LCK kinase inhibition (LCK; 5 nM): − (less than 20% inhibition) | LCK kinase inhibition (LCK; 50 nM): − (less than 20% inhibition) | LCK kinase inhibition (LCK; 1000 nM): − (less than 20% inhibition)
